Read-outs that look alike come from different tables or passages of the source.
What was measured:
[1] = Cytotoxicity by intracellular ATP levels; assay type: cell-based; settings: human, Huh5-2 cells, read-out: HCV Replicon 1b CC50
Procedure: (§1) The HCV RNA replication inhibitory effect of the novel compounds and their impact on cell viability was tested in the stable cell line Huh5-2 carrying an HCV subgenomic reporter replicon of genotype 1b (strain Con1). The viral replication level was measured in terms of the activity of the co-expressed firefly luciferase (F-Luc). Several concentrations of the tested compounds were prepared in a cell culture medium and were used to treat the cells for 72 h. The solvent DMSO was added as a control with a final concentration of 0.2% so as not to impact viral replication (data not shown). First, different compound concentrations of up to 100 μM were evaluated for their effect on cell viability; results are reported as the median cytotoxic concentration (CC50). Next, all compounds were screened for their anti-HCV activity at a concentration of 1 µM, and compounds showing ≥50% activity were further tested in several concentrations to calculate the median effective concentration (EC50) values (Table 1 and Table 2). The anti-HCV activity of the analogs 1–32 was estimated by quantifying luciferase activity resulting from viral replication. Cytotoxicity was determined by measuring the intracellular levels of ATP. The selectivity index (SI50) was calculated as the ratio of CC50 to EC50 and was calculated as an indication of the compounds’ safety. We used daclatasvir as a positive control.
(§2) Cells were treated with serial dilutions of the test compounds or the solvent DMSO for 72 h. Antiviral activity and cytotoxicity were determined by measuring virus-derived luciferase activity or intracellular ATP levels, respectively. The median effective concentration (EC50) of the compounds, reducing luciferase signal by 50%, and their median cytotoxic concentration (CC50), causing 50% cell death, were determined by nonlinear regression analysis using the Prism 6.0 software (GraphPad Software Inc.). Daclatasvir was kindly provided by Dr. Marc Windisch (Institut Pasteur Korea).
ATP was measured using the ViaLight HS BioAssay kit (Lonza) according to the manufacturer’s protocol in a GloMax 20/20 single-tube luminometer (Promega) for 1 s. Values were normalized to total protein amounts.

[2] = system: HCV subgenomic reporter replicon of genotype 1b (strain Con1); test: Anti-HCV 1b activity, luciferase reporter replicon assay in Huh5-2 cells; assay type: cell-based, Hepatitis C virus; settings: for EC50: Hepatitis C virus, read-out: HCV Replicon 1b EC50; for HCV Replicon 1b SI50: SI50 = CC50/EC50
Procedure: as §1
The stable replicon cell line Huh5-2 (genotype 1b; Con1) (kindly provided by R. Bartenschlager, Heidelberg University, Germany) has been described previously. The stable cell lines Huh7.5-3a and Huh7.5-4a have been constructed with the subgenomic reporter replicons of HCV 3a (S52) S52-SG(Feo)(AII) and HCV 4a (ED43) ED43-SG(Feo)(VYG) (kindly provided by C.M. Rice, The Rockefeller University, NY). Cells were cultured in high glucose (25 mM) Dulbecco’s modified minimal essential medium (Invitrogen), supplemented with 2 mM L-glutamine, 0.1 mM non-essential amino acids, 100 U/mL penicillin, 100 µg/mL streptomycin, and 10% (v/v) fetal calf serum (referred to as complete DMEM). Complete DMEM was supplemented with G418 at 500 μg/mL for Huh5-2, 750 μg/mL for Huh7.5-3a, and 350 μg/mL for Huh7.5-4a.
as §2
Firefly luciferase activity was measured using Luciferase Assay System (Promega), according to the manufacturer’s instructions. Measurements were performed with a GloMax 20/20 single tube luminometer (Promega) for 10 s. Values were normalized to total protein amounts as quantified by Bradford assay (Pierce).

[3] = Huh-5-2, Huh5-2 cells, 72 h, luciferase activity

Compound	CC50 at 72 h [1]	EC50 ([2]; Huh-5-2, 72 h)	HCV Replicon 1b SI50 [2]	EC50 [2, 3]	times less potent than compound 26 ([2]; HCV 1b EC50 ratio)	fold more potent than six-membered congeners ([2]; 1, 9, 17, 21 vs 29, 30, 31, 32 respectively, HCV 1b EC50 ratio)
COC(=O)N[C@@H](CC(C)C)C(=O)N1CCCC(C(=O)Nc2ccc3c(c2)Cc2cc(NC(=O)C4CCCN(C(=O)[C@H](CC(C)C)NC(=O)OC)C4)ccc2-3)C1 (some centres unmarked) [Compound 30]	> 100000 nM	289 nM	>346	–	–	–
CC(C)(C)OC(=O)N1CCCC(C(=O)Nc2ccc3c(c2)Cc2cc(NC(=O)C4CCCN(C(=O)OC(C)(C)C)C4)ccc2-3)C1 (centres unmarked) [IV, Di-tert-butyl3,3’-(((9H-fluorene-2,7diyl)bis(azanediyl))bis(carbonyl))bis(piperidine-1-carboxylate)]	45000 nM	–	–	> 1000 nM	–	–
CCOC(=O)N[C@H](C(=O)N1CCC[C@H]1C(=O)Nc1ccc2c(c1)Cc1cc(NC(=O)[C@@H]3CCCN3C(=O)[C@@H](NC(=O)OCC)c3ccccc3)ccc1-2)c1ccccc1 [Compound 22, Diethyl((1S,1’S)-((2S,2’S)-(((9H-fluorene-2,7-diyl)bis(azanediyl))bis(carbonyl))bis(pyrrolidine-2,1-diyl))bis(2-oxo-1-phenylethane-2,1-diyl))dicarbamate]	> 100000 nM	7.49 nM	>13,349	–	–	–
O=C(N[C@@H](C(=O)N1CCC[C@H]1C(=O)Nc1ccc2c(c1)Cc1cc(NC(=O)[C@@H]3CCCN3C(=O)[C@H](NC(=O)OCc3ccccc3)c3ccccc3)ccc1-2)c1ccccc1)OCc1ccccc1 [Compound 28, Dibenzyl((1R,1’R)-((2S,2’S)-(((9H-fluorene-2,7-diyl)bis(azanediyl))bis(carbonyl)) Bis(pyrrolidine-2,1-diyl))bis(2-oxo-1-phenylethane-2,1-diyl))dicarbamate]	> 100000 nM	–	>1,058	94.5 nM	2363 times	–
CCC(C)[C@H](NC(=O)OC)C(=O)N1CCCC(C(=O)Nc2ccc3c(c2)Cc2cc(NC(=O)C4CCCN(C(=O)[C@@H](NC(=O)OC)C(C)CC)C4)ccc2-3)C1 (some centres unmarked) [Compound 31]	98300 nM	296 nM	333	–	–	–
CCCCOC(=O)N[C@H](C(=O)N1CCC[C@H]1C(=O)Nc1ccc2c(c1)Cc1cc(NC(=O)[C@@H]3CCCN3C(=O)[C@@H](NC(=O)OCCCC)C(C)C)ccc1-2)C(C)C [Compound 3, Dibutyl((2S,2’S)-((2S,2’S)-(((9H-fluorene-2,7-diyl)bis(azanediyl))bis(carbonyl))bis(pyrrolidine-2,1-diyl))bis(3-methyl-1-oxobutane-1,2-diyl))dicarbamate]	> 100000 nM	> 1000 nM	–	–	–	–
COC(=O)N[C@H](C(=O)N1CCC[C@H]1C(=O)Nc1ccc2c(c1)Cc1cc(NC(=O)[C@@H]3CCCN3C(=O)[C@@H](NC(=O)OC)C(C)C)ccc1-2)C(C)C [Compound 1, Dimethyl((2S,2’S)-((2S,2’S)-(((9H-fluorene-2,7-diyl)bis(azanediyl))bis(carbonyl))bis(pyrrolidine-2,1-diyl))bis(3-methyl-1-oxobutane-1,2-diyl))dicarbamate]	–	–	–	–	–	five
COC(=O)N[C@H](C(=O)N1CCCC(C(=O)Nc2ccc3c(c2)Cc2cc(NC(=O)C4CCCN(C(=O)[C@@H](NC(=O)OC)C(C)C)C4)ccc2-3)C1)C(C)C (some centres unmarked) [Compound 29]	> 100000 nM	342 nM	>292	–	–	–
CCOC(=O)N[C@H](CC(C)C)C(=O)N1CCC[C@H]1C(=O)Nc1ccc2c(c1)Cc1cc(NC(=O)[C@@H]3CCCN3C(=O)[C@@H](CC(C)C)NC(=O)OCC)ccc1-2 [Compound 14, Diethyl ((2R,2’R)-((2S,2’S)-(((9H-fluorene-2,7-diyl)bis(azanediyl))bis(carbonyl))bis(pyrrolidine-2,1-diyl))bis(4-methyl-1-oxopentane-1,2-diyl))dicarbamate]	> 100000 nM	2.55 nM	>39,185	–	–	–
O=C(N[C@H](C(=O)N1CCC[C@H]1C(=O)Nc1ccc2c(c1)Cc1cc(NC(=O)[C@@H]3CCCN3C(=O)[C@@H](NC(=O)OCc3ccccc3)c3ccccc3)ccc1-2)c1ccccc1)OCc1ccccc1 [Compound 24, Dibenzyl((1S,1’S)-((2S,2’S)-(((9H-fluorene-2,7-diyl)bis(azanediyl))bis(carbonyl))bis(pyrrolidine-2,1-diyl))bis(2-oxo-1-phenylethane-2,1-diyl))dicarbamate]	> 100000 nM	–	>89,606	1.12 nM	–	–
CCCCOC(=O)N[C@@H](C(=O)N1CCC[C@H]1C(=O)Nc1ccc2c(c1)Cc1cc(NC(=O)[C@@H]3CCCN3C(=O)[C@H](NC(=O)OCCCC)c3ccccc3)ccc1-2)c1ccccc1 [Compound 27, Dibutyl((1R,1’R)-((2S,2’S)-(((9H-fluorene-2,7-diyl)bis(azanediyl))bis(carbonyl))bis(pyrrolidine-2,1-diyl))bis(2-oxo-1-phenylethane-2,1-diyl))dicarbamate]	> 100000 nM	4.03 nM	>24,795	–	100 times	–
COC(=O)N[C@@H](C(=O)N1CCC[C@H]1C(=O)Nc1ccc2c(c1)Cc1cc(NC(=O)[C@@H]3CCCN3C(=O)[C@H](NC(=O)OC)C(C)C)ccc1-2)C(C)C [Compound 5, Dimethyl ((2R,2’R)-((2S,2’S)-(((9H-fluorene-2,7-diyl)bis(azanediyl))bis(carbonyl))bis(pyrrolidine-2,1-diyl))bis(3-methyl-1-oxobutane-1,2-diyl))dicarbamate]	> 100000 nM	801 nM	>125	–	–	–
COC(=O)N[C@H](CC(C)C)C(=O)N1CCC[C@H]1C(=O)Nc1ccc2c(c1)Cc1cc(NC(=O)[C@@H]3CCCN3C(=O)[C@@H](CC(C)C)NC(=O)OC)ccc1-2 [Compound 13, Dimethyl((2R,2’R)-((2S,2’S)-(((9H-fluorene-2,7-diyl)bis(azanediyl))bis(carbonyl))bis(pyrrolidine-2,1-diyl))bis(4-methyl-1-oxopentane-1,2-diyl))dicarbamate]	> 100000 nM	0.081 nM	>1,238,850	–	–	–
CCCCOC(=O)N[C@H](CC(C)C)C(=O)N1CCC[C@H]1C(=O)Nc1ccc2c(c1)Cc1cc(NC(=O)[C@@H]3CCCN3C(=O)[C@@H](CC(C)C)NC(=O)OCCCC)ccc1-2 [Compound 15, Dibutyl((2R,2’R)-((2S,2’S)-(((9H-fluorene-2,7-diyl)bis(azanediyl))bis(carbonyl))bis(pyrrolidine-2,1-diyl))bis(4-methyl-1-oxopentane-1,2-diyl))dicarbamate]	34200 nM	> 1000 nM	–	–	–	–
COC(=O)N[C@H](C(=O)N1CCCC(C(=O)Nc2ccc3c(c2)Cc2cc(NC(=O)C4CCCN(C(=O)[C@@H](NC(=O)OC)c5ccccc5)C4)ccc2-3)C1)c1ccccc1 (some centres unmarked) [Compound 32]	> 100000 nM	304 nM	>328	–	–	–
CC(C)C[C@@H](NC(=O)OCc1ccccc1)C(=O)N1CCC[C@H]1C(=O)Nc1ccc2c(c1)Cc1cc(NC(=O)[C@@H]3CCCN3C(=O)[C@@H](CC(C)C)NC(=O)OCc3ccccc3)ccc1-2 [Compound 16, Dibenzyl((2R,2’R)-((2S,2’S)-(((9H-fluorene-2,7-diyl)bis(azanediyl))bis(carbonyl))bis(pyrrolidine-2,1-diyl))bis(4-methyl-1-oxopentane-1,2-diyl))dicarbamate]	> 100000 nM	> 1000 nM	–	–	–	–
CC(C)[C@H](NC(=O)OCc1ccccc1)C(=O)N1CCC[C@H]1C(=O)Nc1ccc2c(c1)Cc1cc(NC(=O)[C@@H]3CCCN3C(=O)[C@@H](NC(=O)OCc3ccccc3)C(C)C)ccc1-2 [Compound 4, Dibenzyl ((2S,2’S)-((2S,2’S)-(((9H-fluorene-2,7-diyl)bis(azanediyl))bis(carbonyl))bis(pyrrolidine-2,1-diyl))bis(3-methyl-1-oxobutane-1,2-diyl))dicarbamate]	> 100000 nM	967 nM	>103	–	–	–
